Common to all, as to assay type: cell-based
For experiment [1], the system named is LAPC4 prostate cancer cells. As to the kind of experiment: Antiproliferative effects in LAPC4 cells (CellTiter Glo). The conditions noted are these: LAPC4 cells (AKT1 E17K allele), read-out: LAPC4 proliferation IC50. The method, boiled down: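 Luminescent ATP read-out (CellTiter Glo) after 72 h compound exposure; 1,000 cells/well in IMDM + 12% FBS + 1% P/S. IC50 by Hill equation fit of luminescence vs. log(inhibitor).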

The target of the next experiment is T1, AKT1 WT (Homo sapiens, UniProt P31749).
T1 construct: expressed in transfected cells; host or cells: HEK293
T1 sequence (P31749 whole entry): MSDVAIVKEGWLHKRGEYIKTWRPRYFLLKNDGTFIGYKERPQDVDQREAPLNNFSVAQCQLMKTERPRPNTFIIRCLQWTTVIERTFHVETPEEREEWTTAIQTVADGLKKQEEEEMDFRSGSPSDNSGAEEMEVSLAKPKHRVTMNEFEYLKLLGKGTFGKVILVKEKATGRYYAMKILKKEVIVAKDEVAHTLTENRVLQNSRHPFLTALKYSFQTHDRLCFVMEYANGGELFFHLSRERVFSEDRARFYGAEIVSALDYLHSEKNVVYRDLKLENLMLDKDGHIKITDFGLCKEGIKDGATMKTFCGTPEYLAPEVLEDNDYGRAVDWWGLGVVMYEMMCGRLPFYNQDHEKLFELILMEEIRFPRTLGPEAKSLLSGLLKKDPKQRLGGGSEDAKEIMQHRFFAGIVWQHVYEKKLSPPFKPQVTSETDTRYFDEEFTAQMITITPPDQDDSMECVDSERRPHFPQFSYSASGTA
As to the kind of experiment: Live cell AKT1 WT target engagement by NanoBRET competitive probe displacement. The conditions noted are these: HEK293 cells transfected with kinase-NanoLuciferase fusion, 2 h at 37° C. The method, boiled down:
(§1)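 NanoLuc-kinase fusions, HEK293, transfected overnight; compound serial dilution + ATP-competitive fluorescent tracer at ~EC50; 2 h, 37 °C. Read 460/600 nm with extracellular NanoLuc inhibitor; BRET = E600/E460; IC50 by Hill fit.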

The target of a further experiment is T2, AKT2 (Homo sapiens, UniProt P31751).
T2 construct: expressed in transfected cells; host or cells: HEK293
T2 sequence (P31751 whole entry): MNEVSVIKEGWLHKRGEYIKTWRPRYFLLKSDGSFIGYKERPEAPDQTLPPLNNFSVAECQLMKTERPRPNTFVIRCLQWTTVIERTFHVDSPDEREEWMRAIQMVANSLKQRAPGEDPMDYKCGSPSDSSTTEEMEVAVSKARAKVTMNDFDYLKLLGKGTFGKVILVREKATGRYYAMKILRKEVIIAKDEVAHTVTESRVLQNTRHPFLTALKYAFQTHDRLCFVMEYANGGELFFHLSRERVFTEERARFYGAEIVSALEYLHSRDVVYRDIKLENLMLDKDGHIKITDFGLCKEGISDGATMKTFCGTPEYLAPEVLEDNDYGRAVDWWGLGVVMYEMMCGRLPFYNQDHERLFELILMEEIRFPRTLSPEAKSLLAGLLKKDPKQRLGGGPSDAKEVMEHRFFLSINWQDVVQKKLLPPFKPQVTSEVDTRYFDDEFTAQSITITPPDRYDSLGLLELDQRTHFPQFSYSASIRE
In words: Live cell AKT2 target engagement by NanoBRET competitive probe displacement. The following applies: HEK293 cells transfected with kinase-NanoLuciferase fusion, 2 h at 37° C. An outline of the steps: as §1

The next experiment concerns the target T3, AKT1 E17K (Homo sapiens, UniProt P31749, E17K).
T3 construct: expressed in transfected cells; host or cells: HEK293
As to the kind of experiment: Live cell AKT1 E17K target engagement by NanoBRET competitive probe displacement. The following applies: HEK293 cells transfected with kinase-NanoLuciferase fusion, 2 h at 37° C. An outline of the steps: as §1

pIC50: −log10 of the molar value. Where two headings read alike, the source gives them in different places. A value given as a limit tells only on which side of the number the result lay.

T3 sequence (P31749 whole entry E17K): as the sequence (P31749 whole entry) above, with E17K counted along it

Turning to `C=CC(=O)N1CCC(N[C@H]2CCc3cc(-n4c(-c5cccnc5N)nc5ccc(-n6cc(F)cn6)nc54)ccc32)CC1` [Example 254, (S)-1-(4-((5-(2-(2-aminopyridin-3-yl)-5-(4-fluoro-1H-pyrazol-1-yl)-3H-imidazo[4,5-b]pyridin-3-yl)-2,3-dihydro-1H-inden-1-yl)amino)piperidin-1-yl)prop-2-en-1-one], the pIC50 in experiment [1] (Homo sapiens, LAPC4, 72 h) was 7.03; on AKT1 WT, 7.05; on AKT2, 7.43; at AKT1 E17K, 7.96.

As for `CN(C)C/C=C/C(=O)N1CCC(N[C@H]2CCc3cc(-n4c(-c5cccnc5N)nc5ccc(-n6cccn6)nc54)ccc32)CC1` [Example 34, (2E)-1-(4-{[(1S)-5-[2-(2-aminopyridin-3-yl)-5-(pyrazol-1-yl)imidazo[4,5-b]pyridin-3-yl]-2,3-dihydro-1H-inden-1-yl]amino}piperidin-1-yl)-4-(dimethylamino)but-2-en-1-one], the pIC50 was 6.40 in experiment [1] (Homo sapiens, LAPC4, 72 h); 7.26 at AKT1 WT; 5.92 on AKT2; 6.71 at AKT1 E17K.

Take `C=CC(=O)N1CCC(N[C@H]2CCc3cc(-n4c(-c5cccnc5N)nc5ccc(-n6cccn6)nc54)ccc32)C[C@H]1C` (single isomer, unassigned) [Example 62, 1-((2R,4*)-4-(((S)-5-(2-(2-aminopyridin-3-yl)-5-(1H-pyrazol-1-yl)-3H-imidazo[4,5-b]pyridin-3-yl)-2,3-dihydro-1H-inden-1-yl)amino)-2-methylpiperidin-1-yl)prop-2-en-1-one]: the pIC50 in experiment [1] (72 h) is 7.77; at AKT1 WT, 8.03; at AKT2, 7.50; on AKT1 E17K, 8.08.

Regarding `C=CC(=O)N1C2CCC1CC(N[C@H]1CCc3cc(-n4c(-c5cccnc5N)nc5ccc(-n6cccn6)nc54)ccc31)C2` (stereo partly drawn) [Example 27, 1-(3-(((S)-5-(2-(2-aminopyridin-3-yl)-5-(1H-pyrazol-1-yl)-3H-imidazo[4,5-b]pyridin-3-yl)-2,3-dihydro-1H-inden-1-yl)amino)-8-azabicyclo[3.2.1]octan-8-yl)prop-2-en-1-one], the pIC50 was 6.37 in experiment [1] (Homo sapiens, LAPC4, 72 h); 7.40 at AKT1 WT; 6.72 on AKT2; 6.97 on AKT1 E17K.

Regarding `C#CC1CC(N[C@H]2CCc3cc(-n4c(-c5cccnc5N)nc5ccc(-n6cccn6)nc54)ccc32)CCN1C(=O)C=C` (single isomer, unassigned) [Example 113, 1-((2*,4*)-4-(((S)-5-(2-(2-aminopyridin-3-yl)-5-(1H-pyrazol-1-yl)-3H-imidazo[4,5-b]pyridin-3-yl)-2,3-dihydro-1H-inden-1-yl)amino)-2-ethynylpiperidin-1-yl)prop-2-en-1-one], the pIC50 in experiment [1] (72 h) is 7.60; at AKT1 WT, 8.13; at AKT2, 7.29; at AKT1 E17K, 8.05.

In the case of `C=CC(=O)N1CCC(N[C@H]2CCc3cc(-n4c(-c5ccccc5F)nc5ccc(-n6cccn6)nc54)ccc32)CC1` [Example 241, 1-(4-{[(1S)-5-[2-(2-fluorophenyl)-5-(pyrazol-1-yl)imidazo[4,5-b]pyridin-3-yl]-2,3-dihydro-1H-inden-1-yl]amino}piperidin-1-yl)prop-2-en-1-one], the pIC50 in experiment [1] (Homo sapiens, LAPC4, 72 h) is 7.11; on AKT1 WT, 6.69; on AKT2 it was 7.73; on AKT1 E17K, 8.25.

For `Nc1ncccc1-c1nc2ccc(-n3cccn3)nc2n1-c1ccc2c(c1)CC[C@@H]2NC1CCN(C(=O)[C@@H]2CO2)CC1` [Example 123, 3-{3-[(1S)-1-({1-[(2S)-oxirane-2-carbonyl]piperidin-4-yl}amino)-2,3-dihydro-1H-inden-5-yl]-5-(pyrazol-1-yl)imidazo[4,5-b]pyridin-2-yl}pyridin-2-amine], the pIC50 in experiment [1] (Homo sapiens, LAPC4, 72 h) is 6.13; at AKT1 WT it was 7.51; at AKT2, 6.41; at AKT1 E17K it was 7.37.

Regarding `C=CC(=O)N1CCC(N[C@H]2CCc3cc(-n4c(-c5cccnc5N)nc5ccc(-n6cccn6)nc54)ccc32)C(C#N)C1` (single isomer, unassigned) [Example 156, (3*,4*)-1-acryloyl-4-(((S)-5-(2-(2-aminopyridin-3-yl)-5-(1H-pyrazol-1-yl)-3H-imidazo[4,5-b]pyridin-3-yl)-2,3-dihydro-1H-inden-1-yl)amino)piperidine-3-carbonitrile], the pIC50 was 7.52 in experiment [1] (72 h), 8.01 at AKT1 WT, 7.19 on AKT2 and 7.95 at AKT1 E17K.

On to `C=CC(=O)N1CCC(N[C@H]2CCc3cc(-n4c(-c5cccnc5N)nc5ccc(-n6cccn6)nc54)ccc32)C(C)(F)C1` (single isomer, unassigned) [Example 307, 1-((3*,4*)-4-(((S)-5-(2-(2-aminopyridin-3-yl)-5-(1H-pyrazol-1-yl)-3H-imidazo[4,5-b]pyridin-3-yl)-2,3-dihydro-1H-inden-1-yl)amino)-3-fluoro-3-methylpiperidin-1-yl)prop-2-en-1-one], for which the pIC50 is 6.46 in experiment [1] (72 h), 6.53 at AKT1 WT, 6.97 at AKT2 and 7.91 on AKT1 E17K.

`C=CC(=O)N1CCC(N[C@H]2CCCc3cc(-n4c(-c5cccnc5N)nc5ccc(-n6cccn6)nc54)ccc32)CC1` [Example 154, (S)-1-(4-((6-(2-(2-aminopyridin-3-yl)-5-(1H-pyrazol-1-yl)-3H-imidazo[4,5-b]pyridin-3-yl)-1,2,3,4-tetrahydronaphthalen-1-yl)amino)piperidin-1-yl)prop-2-en-1-one]: the pIC50 is less than 5.00 in experiment [1] (Homo sapiens, LAPC4, 72 h); 6.52 at AKT1 WT; less than 5.00 at AKT2; less than 6.00 at AKT1 E17K.

In the case of `C=CC(=O)N1CCC(N[C@@H]2c3ccc(-n4c(-c5cccnc5N)nc5ccc(-n6ccc(F)n6)nc54)cc3CC2F)C[C@@H]1C` (single isomer, unassigned) [Example 271, 1-((2S,4*)-4-(((1R,2*)-5-(2-(2-aminopyridin-3-yl)-5-(3-fluoro-1H-pyrazol-1-yl)-3H-imidazo[4,5-b]pyridin-3-yl)-2-fluoro-2,3-dihydro-1H-inden-1-yl)amino)-2-methylpiperidin-1-yl)prop-2-en-1-one], the pIC50 was 6.17 in experiment [1] (72 h), 6.03 on AKT1 WT, 6.61 on AKT2 and 7.66 at AKT1 E17K.

Take `C=CC(=O)N1CC(N2CCC(N[C@H]3CCc4cc(-n5c(-c6cccnc6N)nc6ccc(-n7cccn7)nc65)ccc43)CC2)C1` [Example 158, (S)-1-(3-(4-((5-(2-(2-aminopyridin-3-yl)-5-(1H-pyrazol-1-yl)-3H-imidazo[4,5-b]pyridin-3-yl)-2,3-dihydro-1H-inden-1-yl)amino)piperidin-1-yl)azetidin-1-yl)prop-2-en-1-one]: the pIC50 in experiment [1] (Homo sapiens, LAPC4, 72 h) is 5.96; at AKT1 WT, 7.14; on AKT2, 5.73; on AKT1 E17K it was 6.45.

Regarding `C=CC(=O)N1CCOCC(N[C@H]2CCc3cc(-n4c(-c5cccnc5N)nc5ccc(-n6cccn6)nc54)ccc32)C1` (single isomer, unassigned) [Example 53, 1-((*)-6-(((S)-5-(2-(2-aminopyridin-3-yl)-5-(1H-pyrazol-1-yl)-3H-imidazo[4,5-b]pyridin-3-yl)-2,3-dihydro-1H-inden-1-yl)amino)-1,4-oxazepan-4-yl)prop-2-en-1-one], the pIC50 in experiment [1] (72 h) was 5.55; on AKT1 WT, 6.39; on AKT2, 5.40; on AKT1 E17K it was less than 6.00.

Consider `C=CC(=O)N1CCC12CCC(N[C@H]1CCc3cc(-n4c(-c5cccnc5N)nc5ccc(-n6cccn6)nc54)ccc31)CC2` (stereo partly drawn) [Example 80, 1-(7-{[(1S)-5-[2-(2-aminopyridin-3-yl)-5-(pyrazol-1-yl)imidazo[4,5-b]pyridin-3-yl]-2,3-dihydro-1H-inden-1-yl]amino}-1-azaspiro[3.5]nonan-1-yl)prop-2-en-1-one], for which the pIC50 in experiment [1] (Homo sapiens, LAPC4, 72 h) was 6.92; at AKT1 WT, 7.80; on AKT2 it was 6.78; on AKT1 E17K it was 7.38.

With `C=CC(=O)N1CCC(N[C@@H]2c3ccc(-n4c(-c5cccnc5N)nc5ccc(-n6ccc(F)n6)nc54)cc3CC2F)C[C@@H]1C` (single isomer, unassigned) [Example 273, 1-((2S,4*)-4-(((1R,2*)-5-(2-(2-aminopyridin-3-yl)-5-(3-fluoro-1H-pyrazol-1-yl)-3H-imidazo[4,5-b]pyridin-3-yl)-2-fluoro-2,3-dihydro-1H-inden-1-yl)amino)-2-methylpiperidin-1-yl)prop-2-en-1-one], the pIC50 in experiment [1] (72 h) was 6.87; at AKT1 WT, 6.80; on AKT2 it was 7.55; at AKT1 E17K, 7.94.

For the compound `C=CC(=O)N1CCC(N[C@H]2CCc3cc(-n4c(-c5cccnc5N)nc5ccc(-n6cccn6)nc54)ccc32)C(C)C1` (single isomer, unassigned) [Example 99, 1-((3*,4*)-4-(((S)-5-(2-(2-aminopyridin-3-yl)-5-(1H-pyrazol-1-yl)-3H-imidazo[4,5-b]pyridin-3-yl)-2,3-dihydro-1H-inden-1-yl)amino)-3-methylpiperidin-1-yl)prop-2-en-1-one], the pIC50 in experiment [1] (72 h) was 6.15; on AKT1 WT, 7.48; at AKT2 it was 6.25; at AKT1 E17K it was 7.05.

(Values after patent publication US12570655B2, “Cysteine covalent modifiers of AKT1 and uses thereof” (Terremoto Biosciences, Inc., priority 2023, dated 2026).)
